Key:
[1] = test system: benzodiazepine receptors; details: general statement on how activity is indicated in the test; cited from earlier work
[2] = test system: rats; assay: Neuromuscular impairment / roto-rod test; details: for neuromuscular uncoordination (ataxia) on the roto-rod: benzodiazepine agonist alone; for antagonism of diazepam-induced neuromuscular impairment on the roto-rod: oral or intraperitoneal, 30 to 45 minutes before the benzodiazepine agonist
Experimental: Further tests may be conducted to evaluate the agonist/antagonist profile of a compound. The procedures or methods used to determine anticonflict (shock-induced suppressions of drinking test), antagonism of metrazole-induced convulsions and neuromuscular impairment (roto-rod studies) are published in Eur. J. Pharmacol. 78(3):323-333 (1980) and briefly discussed below. To determine the antagonist properties of a test compound, subjects are treated with test agent intraperitoneally or orally at selected intervals prior to or following treatment with a benzodiazepine agonist, and are then tested under the appropriate test conditions.
A roto-rod test (Rinnard and Car, J. Pharmacol. and Exp. Therap. 121:354 (1957)) which measures the rat's muscle tone and ability to perform coordinated locomotor tasks may be used to evaluate a test compound's antagonist properties. In the roto-rod test, rats are trained to maintain themselves for at least 1 min on a rotating rod (6 r.p.m.). Subjects are treated with a test compound and are retested for their ability to maintain themselves on the roto-rod at 30 and 60 min. post-drug administration. Subjects that fail to stay on the rod for a one-minute period are considered to be neuromuscularly impaired (ataxia) and the ED50 (that dose which would be expected to produce ataxia in 50% of the rats tested) is calculated. […] The benzodiazepine antagonists may also be administered immediately prior to, or immediately after, the benzodiazepine agonist in this test.

[3] = test system: rats; assay: Anti-conflict activity / shock-induced suppression of drinking (SSD) test; type: in vivo; details: for anticonflict activity (increase in mean number of shocks taken vs vehicle controls): substance given alone; for antagonism of the anticonflict or disinhibiting activity (increase in shocks taken) of benzodiazepine agonists: oral or i.p., 0.2 to 50 mg per kg, 30 to 45 minutes before the benzodiazepine agonist
Experimental: A modification of the method of Vogel and coworkers (1971) is used. […] In this test, benzodiazepine agonists (e.g. chlordiazepoxide) are administered either intraperitoneally (i.p.) or orally (p.o.) at 30 or 60 min., respectively, prior to the initiation of the test. […]
The mean number of shocks taken for the groups that received the test agents (benzodiazepine agonists) alone and in the presence of benzodiazepine antagonist are recorded.

[4] = test system: metrazole-induced convulsions; assay: Antagonism of metrazole-induced convulsions (anticonvulsant activity); type: in vivo; details: substance given alone
Experimental: Further tests may be conducted to evaluate the agonist/antagonist profile of a compound. […] To determine the antagonist properties of a test compound, subjects are treated with test agent intraperitoneally or orally at selected intervals prior to or following treatment with a benzodiazepine agonist, and are then tested under the appropriate test conditions.

[5] = test system: benzodiazepine receptors; assay: [3H]-flunitrazepam binding test (FNB test); details: at a tested concentration of 500 nanomolar or less; rat cerebral cortex P2 membranes
[6] = test system: male Wistar rats; assay: Overt toxicity after intraperitoneal dosing; type: in vivo
Excerpt: In general, the compound 4-amino-8-phenyl-N-propyl-3-cinnolinecarboxamide is believed to be able to antagonize the effects of benzodiazepine receptor agonists and will be useful whenever such antagonism is desired.

Compound | effect on flunitrazepam binding (displacement or enhancement) [1] | neuromuscular uncoordination (ataxia) on the roto-rod [2] | anticonflict activity (increase in mean number of shocks taken vs vehicle controls) [3] | antagonism of diazepam-induced neuromuscular impairment on the roto-rod [2] | antagonism of the anticonflict or disinhibiting activity (increase in shocks taken) of benzodiazepine agonists [3] | also measured
CCCCNc1c(C(=O)OCC)cnc2c1cnn2CC [cartazolate] | enhancement of the binding | – | – | – | – | –
CNC1=Nc2ccc(Cl)cc2C(c2ccccc2)=[N+]([O-])C1 [chlordiazepoxide] | – | produce neuromuscular uncoordination (ataxia) at relatively low doses | significant (P<0.05) anticonflict activity | – | – | mean number of shocks taken as compared to vehicle controls ([3]; rats, oral dose of 18 mg per kg chlordiazepoxide alone): significant increases
CN1C(=O)CN=C(c2ccccc2)c2cc(Cl)ccc21 [diazepam] | – | produce neuromuscular uncoordination (ataxia) at relatively low doses | significant (P<0.05) anticonflict activity | – | – | –
CCOC(=O)c1ncn2c1CN(C)C(=O)c1cc(F)ccc1-2 [ethyl 8-fluoro-5,6-dihydro-5-methyl-6-oxo-4H-imidazo(1,5a)(1,4)benzodiazepine-3-carboxylate] | – | – | – | antagonized | antagonized | –
CCCNC(=O)c1nnc2c(-c3ccccc3)cccc2c1N [formula Ia, 4-amino-8-phenyl-N-propyl-3-cinnolinecarboxamide] | – | – | does not exhibit | antagonized | antagonized | anticonvulsant activity typical of benzodiazepine agonists [4]: does not exhibit; displacement of specific [3H]-flunitrazepam binding [5]: ≥ 50%; neuromuscular impairment (reversal of diazepam effect; ability to remain on the roto-rod) ([2]; rats, intraperitoneal 1.25 mg per kg five minutes after 20 mg per kg intraperitoneal diazepam): did not exhibit significant neuromuscular impairment; mean number of shocks taken (reversal of chlordiazepoxide effect) ([3]; rats, oral 1.25 mg per kg five minutes prior to 18 mg per kg oral chlordiazepoxide): did not exhibit a significant increase; toxicological problems ([6]; at several multiples of a therapeutic dose): has not exhibited toxicological problems; overt toxic effects ([6]; male Wistar rats, intraperitoneal dose of 50 mg per kg): no overt toxic effects
CCCCNc1c(C(=O)OCC)c(C)nc2c1cnn2CC [tracazolate] | enhancement of the binding | – | – | – | – | –

Source: patent publication US4925844A, “Antagonizing the pharmacological effects of a benzodiazepine receptor agonist” (ICI Americas Inc., priority 1989, dated 1990)
